For one compound, KD results are on record in PMC12368656 (2025).

The test system of assay [1] is 3′-methylene blue- and 5′-thiol-modified oligonucleotide with affinity toward vancomycin (aptamer probe) (DNA, aptamer) CGAGGGTACCGCAATAGTACTTATTGTTCGCCTATTGTGGGTCGG
Kind of assay: electrochemical aptamer-based sensor, SWV titration, gold-coated microstructured electrode (MSE). The following applies: Na+ (0.5 wt % NaCl); artificial sweat (0.1 wt % urea, 0.1 wt % lactic acid), pH 6.5, room temperature; apparent.

Assay [2] shares this test system. The assay is described as follows: electrochemical aptamer-based sensor, SWV titration, planar gold electrode. The conditions noted are these: Na+ (0.5 wt % NaCl); artificial sweat (0.1 wt % urea, 0.1 wt % lactic acid), pH 6.5, room temperature; apparent.

As for `CN[C@H](CC(C)C)C(=O)N[C@H]1C(=O)N[C@@H](CC(N)=O)C(=O)N[C@H]2C(=O)N[C@H]3C(=O)N[C@H](C(=O)N[C@H](C(=O)O)c4cc(O)cc(O)c4-c4cc3ccc4O)[C@H](O)c3ccc(c(Cl)c3)Oc3cc2cc(c3O[C@@H]2O[C@H](CO)[C@@H](O)[C@H](O)[C@H]2O[C@H]2C[C@](C)(N)[C@H](O)[C@H](C)O2)Oc2ccc(cc2Cl)[C@H]1O`, the figures for the KD in assay [1] and in assay [2] were 46.6 ± 4.1 µM and 26.3 ± 3.3 µM, respectively.
